Data set [1] addresses T1, Prostaglandin G/H synthase 1 (Ovis aries, UniProt P05979).
T1 sequence (P05979 whole entry): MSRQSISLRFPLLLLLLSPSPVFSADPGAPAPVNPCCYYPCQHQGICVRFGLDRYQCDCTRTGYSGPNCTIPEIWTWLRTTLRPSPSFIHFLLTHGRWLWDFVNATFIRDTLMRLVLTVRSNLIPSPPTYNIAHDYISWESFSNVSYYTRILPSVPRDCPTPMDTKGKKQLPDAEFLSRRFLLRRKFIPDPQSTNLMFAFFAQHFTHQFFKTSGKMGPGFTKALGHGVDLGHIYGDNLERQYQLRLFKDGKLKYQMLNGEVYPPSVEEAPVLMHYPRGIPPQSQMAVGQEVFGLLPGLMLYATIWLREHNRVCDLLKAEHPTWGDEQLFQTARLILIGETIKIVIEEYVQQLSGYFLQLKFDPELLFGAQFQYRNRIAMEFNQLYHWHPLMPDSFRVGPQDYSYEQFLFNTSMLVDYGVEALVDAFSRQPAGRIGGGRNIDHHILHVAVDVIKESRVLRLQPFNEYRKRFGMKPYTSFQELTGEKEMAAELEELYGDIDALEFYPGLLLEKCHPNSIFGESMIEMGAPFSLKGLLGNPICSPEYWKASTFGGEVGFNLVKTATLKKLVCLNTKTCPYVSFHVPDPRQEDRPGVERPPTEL
Description: Inhibition of ovine COX-1 assessed as reduction of prostaglandin-G2 to prostaglandin-H2 by measuring oxidation of 10-acetyl-3,7-dihydroxyphenoxazine to resorufin after 5 mins by fluorescence based assay.

A short description of data set [2]: Selectivity index, ratio of IC50 for ovine COX-1 to IC50 for recombinant human COX-2.
Data set [3] deals with T2, Prostaglandin G/H synthase 2 (Homo sapiens, UniProt P35354).
T2 sequence (P35354 whole entry): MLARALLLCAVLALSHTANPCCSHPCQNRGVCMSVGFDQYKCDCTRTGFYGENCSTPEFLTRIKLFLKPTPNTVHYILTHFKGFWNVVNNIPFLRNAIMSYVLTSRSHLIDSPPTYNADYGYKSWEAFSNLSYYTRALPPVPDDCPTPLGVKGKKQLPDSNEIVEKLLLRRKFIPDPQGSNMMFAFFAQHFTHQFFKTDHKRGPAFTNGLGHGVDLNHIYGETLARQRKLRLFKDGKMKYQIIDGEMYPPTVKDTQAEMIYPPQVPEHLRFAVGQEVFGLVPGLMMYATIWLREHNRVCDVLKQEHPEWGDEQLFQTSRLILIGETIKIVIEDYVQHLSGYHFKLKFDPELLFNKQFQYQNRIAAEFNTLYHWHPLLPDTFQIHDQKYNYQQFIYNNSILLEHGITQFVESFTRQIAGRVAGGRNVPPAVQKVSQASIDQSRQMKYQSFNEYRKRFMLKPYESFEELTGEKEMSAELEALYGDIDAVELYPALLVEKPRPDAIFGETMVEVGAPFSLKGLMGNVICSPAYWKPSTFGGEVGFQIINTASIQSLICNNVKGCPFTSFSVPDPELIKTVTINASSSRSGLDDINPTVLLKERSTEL

Data set [4] can be described thus: Solubility of compound in normal saline. The format is physicochemical.
Data set [5] is described as follows: Dissociation constant, pKa of compound. It is filed as physicochemical.

For orientation: IC50 means the concentration needed to halve the response being measured. As for `C[Si](C)(C)c1onc(-c2ccc(F)cc2)c1-c1ccc(S(N)(=O)=O)cc1`, the half-inhibitory concentration (IC50) in data set [1] was > 100 µM; in data set [3], 0.93 µM. Moreover, the Ratio IC50 in data set [2] was > 110.
Turning to `C[Si](C)(C)c1c(-c2ccc(F)cc2)noc1-c1ccc(S(C)(=O)=O)cc1`, the concentration for half-maximal inhibition (IC50) in data set [1] and in data set [3] was > 100 µM throughout.
With `CC(=O)c1onc(-c2ccc(F)cc2)c1-c1ccc(S(C)(=O)=O)cc1`, the concentration for half-maximal inhibition (IC50) in data set [1] and in data set [3] was > 100 µM throughout.
Take `C[Si](C)(C)c1onc(-c2ccc(F)cc2)c1-c1ccc(S(C)(=O)=O)cc1`: the IC50 in data set [1] was > 100 µM; in data set [3], 1.87 µM. In addition, the Ratio IC50 in data set [2] is > 54.
In the case of `C[Si](C)(C)c1c(-c2ccccc2)noc1-c1ccc(S(C)(=O)=O)cc1`, the half-maximal inhibitory concentration (IC50) in data set [1] and in data set [3] was > 100 µM each time.
By solubility is commonly meant the concentration that dissolves in the medium under given conditions. Lower therefore signals little dissolved substance. Broadly, the pKa is the negative logarithm of the acid dissociation constant. Regarding `Cc1onc(-c2ccccc2)c1-c1ccc(S(N)(=O)=O)cc1` [VALDECOXIB], in data set [4], the concentration in solution (solubility) was 10 mM. Also, the pKa in data set [5] came to 9.8.
Take `CS(=O)(=O)c1ccc(-c2c(-c3ccc(F)cc3)noc2C(F)(F)F)cc1`: the values for the half-maximal inhibitory concentration (IC50) in data set [1] and in data set [3] were > 100 µM and 8.14 µM, respectively. The Ratio IC50 in data set [2] is > 12.
For the compound `COC(=O)c1onc(-c2ccc(F)cc2)c1-c1ccc(S(C)(=O)=O)cc1`, the IC50 in data set [1] and in data set [3] was > 100 µM each time.
For `CS(=O)(=O)c1ccc(-c2cc(-c3ccc(F)cc3)no2)cc1`, the 50% inhibitory concentration (IC50) in data set [1] and in data set [3] was > 100 µM in each case.
For the compound `CS(=O)(=O)c1ccc(-c2cc(-c3ccccc3)no2)cc1`, the half-inhibitory concentration (IC50) in data set [1] was > 100 µM; in data set [3], 13.5 µM. Further, the Ratio IC50 in data set [2] is > 7.4.
On the same counts, the results for `CS(=O)(=O)c1ccc(-c2c(-c3ccc(F)cc3)noc2C=O)cc1` are > 100 µM, 13.8 µM and > 7.
On the same counts, the results for `C[Si](C)(C)c1c(-c2ccccc2)noc1-c1ccc(S(N)(=O)=O)cc1` are > 100 µM, 11.1 µM and > 9.
On the same counts, the results for `CS(=O)(=O)c1ccc(-c2conc2-c2ccccc2)cc1` are > 100 µM, 0.247 µM and > 400.
For `C[Si](C)(C)c1onc(-c2ccccc2)c1-c1ccc(S(C)(=O)=O)cc1`, the figures for the IC50 in data set [1] and in data set [3] were > 100 µM and 4.17 µM, respectively. Moreover, in data set [2], the Ratio IC50 is 23.9.
On the same counts, the results for `CS(=O)(=O)c1ccc(-c2c(-c3ccc(F)cc3)noc2Cl)cc1` are 10.1 µM, 0.351 µM and 28.7.
The matching figures for `C[Si](C)(C)c1onc(-c2ccccc2)c1-c1ccc(S(N)(=O)=O)cc1`: > 100 µM, 0.13 µM and > 770.
On the same counts, the results for `CS(=O)(=O)c1ccc(-c2conc2-c2ccc(F)cc2)cc1` are > 100 µM, 0.057 µM and > 1800.
Take `C[Si](C)(C)c1c(-c2ccc(F)cc2)noc1-c1ccc(S(N)(=O)=O)cc1`: the IC50 is > 100 µM in data set [1] and 38.2 µM in data set [3]. In addition, in data set [2], the Ratio IC50 was > 2.6.
On to `CCC(=O)NS(=O)(=O)c1ccc(-c2c(-c3ccccc3)noc2C)cc1` [PARECOXIB], for which the solubility in data set [4] was > 50 mg/mL.
`NS(=O)(=O)c1ccc(-c2conc2-c2ccccc2)cc1`: the IC50 in data set [1] is > 100 µM; in data set [3], 0.048 µM. Besides, the Ratio IC50 in data set [2] was > 2100.
For `NS(=O)(=O)c1ccc(-c2cc(-c3ccc(F)cc3)no2)cc1`, the IC50 in data set [1] was > 100 µM; in data set [3], 81.2 µM. Further, the Ratio IC50 in data set [2] was > 1.2.
`CS(=O)(=O)c1ccc(-c2c(-c3ccc(F)cc3)noc2C(=O)c2ccccc2)cc1`: the IC50 in data set [1] and in data set [3] was > 100 µM throughout.
For the compound `NS(=O)(=O)c1ccc(-c2cc(-c3ccccc3)no2)cc1`, the values for the IC50 in data set [1] and in data set [3] were > 100 µM and 10.8 µM, respectively. In addition, the Ratio IC50 in data set [2] is > 9.3.
The matching figures for `Cc1onc(-c2ccc(F)cc2)c1-c1ccc(S(N)(=O)=O)cc1`: > 100 µM, 0.073 µM and > 1400.
`NS(=O)(=O)c1ccc(-c2conc2-c2ccc(F)cc2)cc1`: the values for the IC50 in data set [1] and in data set [3] were > 100 µM and 0.042 µM, respectively. Further, in data set [2], the Ratio IC50 was > 2400.

For the origin of these results see ChEMBL document CHEMBL4261574 (Medchemcomm, 2018).
